Biological target: T1, α4β1 integrin (Homo sapiens, UniProt P05556+P13612)
T1 construct: Ramos cells fluorescently labeled with calcein; endogenous in cells; host or cells: Ramos cells
Experiment: Inhibition of adhesion of calcein-labeled Ramos cells to CS1 (fibronectin) peptide-conjugated ovalbumin
Type: cell-based
Conditions: for inhibition at 100 µM: Ramos, compound at a concentration of 100 μM, read-out: % A (percent inhibition of cell adhesion); for IC50: dose required to give 50% inhibition, Ramos cell adhesion to CS1-ovalbumin, 30 minutes at 37° C
Method in brief: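 Calcein-labelled Ramos cells (2.5×10^5/well) in TBS with 1 mM MgCl2, CaCl2 and MnCl2 adhered to CS1 peptide–ovalbumin coated at 5 μg/ml for 30 min at 37 °C, with or without compound. After washing, bound cells were lysed and read by fluorescence. IC50 is the dose giving 50% inhibition, and % inhibition was measured at 100 μM.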

T1 sequence (P13612 34-1032): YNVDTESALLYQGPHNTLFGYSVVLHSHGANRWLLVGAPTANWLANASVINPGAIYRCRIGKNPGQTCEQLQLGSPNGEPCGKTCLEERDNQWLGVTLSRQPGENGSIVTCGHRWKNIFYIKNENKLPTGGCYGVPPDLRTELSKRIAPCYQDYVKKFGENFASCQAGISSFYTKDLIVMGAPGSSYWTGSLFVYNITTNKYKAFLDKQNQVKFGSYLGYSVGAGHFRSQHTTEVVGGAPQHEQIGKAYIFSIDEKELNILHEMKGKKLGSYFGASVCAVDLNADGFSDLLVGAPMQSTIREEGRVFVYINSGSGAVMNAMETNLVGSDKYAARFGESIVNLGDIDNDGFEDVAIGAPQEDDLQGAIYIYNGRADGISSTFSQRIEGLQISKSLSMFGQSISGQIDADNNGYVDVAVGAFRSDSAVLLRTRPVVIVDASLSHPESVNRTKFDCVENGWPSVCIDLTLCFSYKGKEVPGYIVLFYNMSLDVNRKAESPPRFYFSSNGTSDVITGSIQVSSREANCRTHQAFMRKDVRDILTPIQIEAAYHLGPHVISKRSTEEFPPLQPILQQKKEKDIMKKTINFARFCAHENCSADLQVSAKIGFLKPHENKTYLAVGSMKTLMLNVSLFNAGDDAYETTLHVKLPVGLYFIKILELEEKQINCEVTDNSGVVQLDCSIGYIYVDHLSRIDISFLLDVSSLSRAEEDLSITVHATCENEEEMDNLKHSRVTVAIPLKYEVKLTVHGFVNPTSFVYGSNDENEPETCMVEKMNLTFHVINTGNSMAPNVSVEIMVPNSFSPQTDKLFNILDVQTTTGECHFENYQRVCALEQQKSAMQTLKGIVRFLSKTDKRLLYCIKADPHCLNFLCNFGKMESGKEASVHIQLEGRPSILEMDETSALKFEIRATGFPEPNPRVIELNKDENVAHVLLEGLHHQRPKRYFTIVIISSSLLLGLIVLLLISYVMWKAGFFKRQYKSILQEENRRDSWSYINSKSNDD
T1 sequence (P05556 21-798): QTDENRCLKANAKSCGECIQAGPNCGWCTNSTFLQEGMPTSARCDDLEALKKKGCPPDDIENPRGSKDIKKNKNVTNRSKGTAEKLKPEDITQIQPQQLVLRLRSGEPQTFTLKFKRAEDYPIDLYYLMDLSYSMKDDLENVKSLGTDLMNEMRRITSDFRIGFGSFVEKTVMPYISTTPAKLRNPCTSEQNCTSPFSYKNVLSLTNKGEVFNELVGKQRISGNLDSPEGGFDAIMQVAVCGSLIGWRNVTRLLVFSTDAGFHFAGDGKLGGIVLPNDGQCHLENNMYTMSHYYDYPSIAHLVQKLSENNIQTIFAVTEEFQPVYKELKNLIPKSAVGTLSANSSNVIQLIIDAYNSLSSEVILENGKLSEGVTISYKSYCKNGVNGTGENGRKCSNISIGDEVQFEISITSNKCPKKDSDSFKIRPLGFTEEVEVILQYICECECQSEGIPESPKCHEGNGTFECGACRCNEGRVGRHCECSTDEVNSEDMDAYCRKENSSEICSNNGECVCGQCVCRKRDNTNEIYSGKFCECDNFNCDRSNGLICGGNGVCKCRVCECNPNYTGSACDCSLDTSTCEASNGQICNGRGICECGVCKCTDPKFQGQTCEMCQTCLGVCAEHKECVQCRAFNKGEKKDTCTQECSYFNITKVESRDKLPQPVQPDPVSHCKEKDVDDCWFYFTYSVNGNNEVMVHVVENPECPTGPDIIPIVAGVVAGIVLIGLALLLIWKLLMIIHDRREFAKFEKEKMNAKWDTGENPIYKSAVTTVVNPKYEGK

Row | Compound | inhibition at 100 µM (Table 1) [%] | IC50 (Table 1) [nM] | IC50 (Table 2) [nM]
1 | O=C(O)C[C@H](NC(=O)N[C@H](CSc1ccccc1)CS(=O)(=O)Cc1ccccc1)c1ccc2c(c1)OCO2 [(3S)-3-(1,3-benzodioxol-5-yl)-3-(((((1R)-2-(benzylsulfonyl)-1-((phenylsulfanyl)methyl)ethyl)amino)carbonyl)amino)propanoic acid] | 100 | 1000 | –
2 | CCCC[C@H](NC(=O)N[C@@H](CC(=O)O)c1ccc2c(c1)OCO2)C(=O)NCc1ccc(NCc2cccs2)cc1 [Compound 37, 3-(3S)-3-(1,3-benzodioxol-5-yl)-3-([((1S)-1-[(4-(2-thienylmethyl)aminobenzyl)amino]carbonylpentyl)amino]carbonylamino)propanoic acid] | – | – | 30
3 | COC(=O)NCCC[C@@H](CSc1ccccc1)NC(=O)N[C@@H](CC(=O)O)c1ccc2c(c1)OCO2 [(8S,12S)-12-(1,3-benzodioxol-5-yl)-3,10-dioxo-8-((phenylsulfanyl)methyl)-2-oxa-4,9,11-triazatetradecan-14-oic acid] | 100 | 2000 | –
4 | CSCC[C@@H](CSc1cccc(NS(C)(=O)=O)c1)NC(=O)N[C@@H](CC(=O)O)c1ccc2c(c1)OCO2 [(3S)-3-(1,3-benzodioxol-5-yl)-3-[({[(1S)-1-[({3-[(methylsulfonyl)amino]phenyl}thio)methyl]-3-(methylthio)propyl]amino}carbonyl)amino]propanoic acid] | 100 | 400 | –
5 | CSCC[C@@H](CSc1ccccc1N)NC(=O)N[C@@H](CC(=O)O)c1ccc2c(c1)OCO2 [(3S)-3-[({[(1S)-1-{[(2-aminophenyl)sulfanyl]methyl}-3-(methylsulfanyl)propyl]amino}carbonyl)amino]-3-(1,3-benzodioxol-5-yl)propanoic acid] | 100 | 300 | –
6 | CC(C)[C@@H](CS(=O)(=O)Cc1ccccc1)NC(=O)NC(CC(=O)O)c1ccc2c(c1)OCO2 (stereo partly drawn) [3-(1,3-benzodioxol-5-yl)-3-{[({(1S)-1-[(benzylsulfonyl)methyl]-2-methylpropyl}amino)carbonyl]amino}propanoic acid] | 92 | 35000 | –
7 | COC(=O)NCCCC[C@H](NC(=O)N[C@@H](CC(=O)O)c1ccc2c(c1)OCO2)C(=O)NCc1ccc(N)cc1 [(9S,13S)-9-{[(4-aminobenzyl)amino]carbonyl}-13-(1,3-benzodioxol-5-yl)-3,11-dioxo-2-oxa-4,10,12-triazapentadecan-15-oic acid] | 100 | 300 | –
8 | CCSC[C@@H](CSc1ccccc1)NC(=O)N[C@@H](CC(=O)O)c1ccc2c(c1)OCO2 [(3S)-3-(1,3-benzodioxol-5-yl)-3-{[({(1S)-2-(ethylsulfanyl)-1-[(phenylsulfanyl)methyl]ethyl}amino)carbonyl]amino}propanoic acid] | 100 | 50 | –
9 | CSC[C@@H](CSc1ccccc1)NC(=O)N[C@@H](CC(=O)O)c1ccc2c(c1)OCO2 [(3S)-3-(1,3-benzodioxol-5-yl)-3-{[({(1S)-2-(methylsulfanyl)-1-[(phenylsulfanyl)methyl]ethyl}amino)carbonyl]amino}propanoic acid] | 100 | 100 | –
10 | CCCC[C@H](NC(=O)N[C@@H](CC(=O)O)c1ccc2c(c1)OCO2)C(=O)NCc1ccc(OCc2ccccc2C)c(OC)c1 [Compound 38, 3-(3S)-3-(1,3-benzodioxol-5-yl)-3-([((1S)-1-[(4-(2-methylbenzyloxy)-3-methoxybenzyl)amino]carbonylpentyl)amino]carbonylamino)propanoic acid] | – | – | 20
11 | COc1ccc(CNC(=O)[C@@H](CC(C)C)NC(=O)NC(CC(=O)O)c2ccc3c(c2)OCO3)cc1 (stereo partly drawn) [3-(1,3-benzodioxol-5-yl)-3-({[((1R)-1-{[(4-methoxybenzyl)amino]carbonyl}-3-methylbutyl)amino]carbonyl}amino)propanoic acid] | 66 | 45000 | –

From patent publication US6262084A, “Compounds that inhibit the binding of integrins to their receptors” (Texas Biotechnology Corporation, priority 1999, dated 2001)
